Values of other authors in US7517545B2, “Reduced-calorie fats containing behenic acid and process of making thereof” (Council of Scientific & Industrial Research, priority 1997, dated 2009).

Conditions: feed study on rats

## CCCCCCCCCCCCCCCCCCCCCCOC(COC(=O)CCCCC)COC(=O)CCCCC [2-behenyl-1,3-dicaproyl glycerol]
  absorption of the structured triglycerides vs other oils: significantly lower
  excretion into feces vs other oils: higher than other oils
